The cell lines below were run with N#CC1(c2ccc(NC(=O)c3cccnc3NCc3ccncc3)cc2)CCCC1 [Apatinib] + Nc1nc2[nH]cc(CCc3ccc(C(=O)N[C@@H](CCC(=O)O)C(=O)O)cc3)c2c(=O)[nH]1 [Pemetrexed] (partner 0.2 µM) (assay: relative viability (nuclei count vs DMSO), 5 days (fraction); higher = more cells survive). Details: first compound 0.08 µM.
In short: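 A single step with final 0.05% Triton X-100, 1% formaldehyde and 1 ug/ml Hoechst fixed the cells and stained nuclei 5 days after treatment. Lung cancer cell lines in 1536-well plates had been treated by pin tool the day after seeding with one drug alone or a fixed anchor-drug dose plus five library-drug doses (not always all listed) in √10 steps, and nuclei were counted on 4× images. Relative viability is the ratio of nuclei in treated wells to nuclei in vehicle wells, taken as the median of duplicate plates.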

In order of falling relative viability:
1. CAL-12T  1.38
2. COR-L 105  1.27
3. NCI-H650  1.02
4. A-427  0.993
5. NCI-H522  0.986
6. NCI-H1792  0.984
7. NCI-H661  0.933
8. HCC-78  0.871
9. NCI-H2342  0.731
10. NCI-H1648  0.681
11. HCC-44  0.677
12. BEN  0.64
13. NCI-H1563  0.622
14. H3255  0.521
15. SW 900  0.486
16. EMC-BAC-2  0.452
17. LCLC-103H  0.439
18. EKVX  0.434
19. HOP-62  0.333
20. 201T  0.325
21. EPLC-272H  0.275
22. ChaGo-K-1  0.27
23. LK-2  0.255
24. HCC-827  0.254
25. LC-2-ad  0.248
26. HARA  0.246
27. HCC-15  0.245
28. COR-L23  0.194
29. HCC-366  0.192
30. LCLC-97TM1  0.179
31. NCI-H358  0.173

Same assay, conditions: first compound 0.253 µM

In order of falling relative viability:
1. CAL-12T  1.25
2. COR-L 105  1.21
3. NCI-H522  0.975
4. HCC-78  0.934
5. NCI-H650  0.924
6. A-427  0.903
7. NCI-H661  0.853
8. NCI-H1563  0.765
9. NCI-H2342  0.73
10. NCI-H1792  0.722
11. HCC-44  0.626
12. NCI-H1648  0.613
13. BEN  0.563
14. H3255  0.545
15. SW 900  0.467
16. EMC-BAC-2  0.465
17. LCLC-103H  0.463
18. 201T  0.37
19. EKVX  0.357
20. EPLC-272H  0.333
21. HOP-62  0.31
22. LC-2-ad  0.299
23. HCC-827  0.25
24. ChaGo-K-1  0.249
25. LK-2  0.243
26. HARA  0.227
27. HCC-15  0.225
28. COR-L23  0.191
29. NCI-H358  0.165
30. HCC-366  0.159
31. LCLC-97TM1  0.139

Same assay, conditions: first compound 0.8 µM

In order of falling relative viability:
1. CAL-12T  1.1
2. COR-L 105  1.04
3. NCI-H522  0.993
4. NCI-H1792  0.993
5. A-427  0.974
6. NCI-H661  0.911
7. NCI-H650  0.89
8. HCC-78  0.854
9. NCI-H1563  0.795
10. NCI-H2342  0.744
11. BEN  0.71
12. NCI-H1648  0.706
13. HCC-44  0.616
14. H3255  0.537
15. SW 900  0.427
16. EMC-BAC-2  0.422
17. LCLC-103H  0.412
18. EKVX  0.379
19. EPLC-272H  0.359
20. 201T  0.297
21. HOP-62  0.289
22. ChaGo-K-1  0.263
23. LC-2-ad  0.259
24. LK-2  0.255
25. HCC-827  0.247
26. NCI-H358  0.233
27. HCC-15  0.217
28. HARA  0.21
29. COR-L23  0.192
30. LCLC-97TM1  0.161
31. HCC-366  0.129

Same assay, conditions: first compound 2.53 µM

In order of falling relative viability:
1. NCI-H661  0.917
2. CAL-12T  0.897
3. A-427  0.896
4. COR-L 105  0.895
5. NCI-H650  0.799
6. NCI-H2342  0.733
7. NCI-H1563  0.708
8. BEN  0.696
9. NCI-H522  0.66
10. HCC-44  0.63
11. HCC-78  0.588
12. NCI-H1792  0.558
13. NCI-H1648  0.548
14. H3255  0.518
15. LCLC-103H  0.432
16. EMC-BAC-2  0.406
17. SW 900  0.379
18. EKVX  0.342
19. 201T  0.334
20. EPLC-272H  0.322
21. LC-2-ad  0.267
22. HOP-62  0.244
23. ChaGo-K-1  0.24
24. HCC-827  0.231
25. COR-L23  0.199
26. HCC-15  0.192
27. LK-2  0.181
28. NCI-H358  0.163
29. LCLC-97TM1  0.141
30. HCC-366  0.121

Same assay, conditions: first compound 8 µM

In order of falling relative viability:
1. COR-L 105  1.05
2. A-427  0.932
3. CAL-12T  0.917
4. HCC-78  0.909
5. NCI-H661  0.892
6. NCI-H522  0.748
7. NCI-H2342  0.737
8. NCI-H1648  0.691
9. NCI-H1563  0.681
10. NCI-H650  0.597
11. BEN  0.534
12. H3255  0.533
13. HCC-44  0.521
14. NCI-H1792  0.447
15. EMC-BAC-2  0.401
16. LCLC-103H  0.39
17. EKVX  0.346
18. SW 900  0.321
19. 201T  0.316
20. HCC-827  0.258
21. ChaGo-K-1  0.245
22. LC-2-ad  0.233
23. EPLC-272H  0.199
24. COR-L23  0.177
25. HARA  0.173
26. HCC-15  0.167
27. HOP-62  0.16
28. LCLC-97TM1  0.146
29. LK-2  0.134
30. NCI-H358  0.128
31. HCC-366  0.0888

Source: the supplement of paper PMC10307832
